Laboratory results published in US20070111267A1, “Method of determining efficacy of anticancer drug and determination kit therefor” (priority 2003, published 2007).
Counter-ions that a name gives are not always drawn.

What was measured:
[1] = system: p27 protein; settings: reported in Tomoda K et al. J Biol Chem. 2002; cited from earlier work
[2] = system: CMK; test: Sensitivity of cell line to the tyrosine kinase inhibitor; type: cell-based, human
Excerpt: CMK: human megakaryocytic leukemia cell line. No expression of Bcr-Abl protein. Resistant to Bcr-Abl inhibitor.
(§1) One to two μM STI571 was directly added to a cell culture.

[3] = system: HEL; test: as above; type: cell-based, human
Excerpt: HEL: human erythrocytic leukemia cell line. No expression of Bcr-Abl protein. Resistant to Bcr-Abl inhibitor.
as §1

[4] = system: K562; test: as above; type: cell-based, human
Excerpt: K562: human CML cell line. Expression of Bcr-Abl protein. Sensitive to Bcr-Abl inhibitor.
as §1

[5] = system: MEG; test: as above; type: cell-based, human
Excerpt: MEG: human CML cell line. Expression of Bcr-Abl protein. Sensitive to Bcr-Abl inhibitor.
as §1

[6] = system: MOLM1; test: as above; type: cell-based, human
Excerpt: MOLM1: human CML cell line. Expression of Bcr-Abl protein. Sensitive to Bcr-Abl inhibitor.
as §1

[7] = system: KYO-1; test: as above; type: cell-based, human; settings: KYO-1 cell line
Excerpt: KYO-1: human CML cell line. Expression of Bcr-Abl protein. Resistant to Bcr-Abl inhibitor. See Leukemia Research 9: 921-926, (1985).
as §1

CCC(=C/[C@H](C)C/C=C/C(C)=C/[C@@H](C)C(=O)[C@@H](C)[C@H](O)[C@@H](C)C/C(C)=C/C(=O)O)/C=C/[C@@H]1OC(=O)C=C[C@@H]1C [leptomycin B]
degradation of p27 protein by the Jab1 small complex [1]: inhibited

Cc1ccc(NC(=O)c2ccc(CN3CCN(C)CC3)cc2)cc1Nc1nccc(-c2cccnc2)n1 [tyrosine kinase inhibitor, imatinib mesylate]
Sensitivity to the tyrosine kinase inhibitor [2]: resistant | Sensitivity to the tyrosine kinase inhibitor [3]: resistant | Sensitivity to the tyrosine kinase inhibitor [4]: sensitive | Sensitivity to the tyrosine kinase inhibitor [5]: sensitive | Sensitivity to the tyrosine kinase inhibitor [6]: sensitive | Sensitivity to the tyrosine kinase inhibitor [7]: resistant
